# Measurements reported in patent publication US7531320B2, “Modulation of β-catenin/TCF-activated transcription” (priority 2003, dated 2009).
# Legend:
# [1] = system: nuclear β-catenin in SW480 cells; experiment: β-catenin immunofluorescence and western blot localization in SW480 cells; assay type: cell-based, human; conditions: 25 μM, 24 hours
# Experimental: FIG. 4. COMPOUND 1 decreases nuclear β-catenin • A. β-catenin immunofluorescence microscopy. Log phase SW480 (left) and HCT116 (right) cells were fixed and stained with either anti-β-catenin red (upper panel, A) or anti-CBP (upper panel, B) green. The center panel represents the superimposed β-catenin and CBP in SW480 (left) and HCT116 (right) cells. […] 25 μg of total protein from the cell extracts of SW480 cells with or without 24 hr treatment of COMPOUND1 was used for detection of cytosolic and nuclear β-catenin.
# Immunofluorescence was used to examine the localization of CBP and β-catenin in SW480 and HCT116 cells treated with COMPOUND 1 (25 μM) or control (0.5% DMSO). Cells at log phase were seeded and after 24 hours, the cells were treated with COMPOUND 1 or control. 24 hours post treatment, cells were fixed. The coverslips were incubated with antibodies raised against CBP (A-22) (Santa Cruz Biotechnology) and β-catenin (Transduction Laboratories), respectively. The slides were examined using a Nikon PCM 2000 Laser Scanning Confocal Microscope after the secondary antibodies conjugated to either FITC or TRITC (Jackson ImmunoResearch, Westgrove, Pa.) were applied.
# The subcellular distribution of β-catenin and CBP was examined in order to determine whether the localization of either was affected by COMPOUND 1. […]
# CBP = molecular target: T1, CBP (Homo sapiens, UniProt Q92793); experiment: COMPOUND 2 streptavidin-agarose affinity pull-down from SW480 nuclear extracts; assay type: binding; conditions: SW480 nuclear extracts, 20 μM preincubation
# T1 construct: endogenous in cells; host or cells: SW480 nuclear extract
# Experimental: FIG. 1. COMPOUND 1 inhibits β-catenin/TCF transcription. • A(i) and A(ii). Structures of COMPOUND 1, COMPOUND 2, COMPOUND 3, COMPOUND 4, and COMPOUND 5. • B(i) and B(ii). […] SW480 cells (10^5), (FIG. 1B(i)), were transfected with β-catenin/TCF luciferase construct. Cells were treated with COMPOUND 1 (1-64 μM). 24 hours post treatment lysates were prepared and subjected to dual luciferase assay. The data is represented in different form in FIG. 1B(ii). • C. COMPOUND 1 has no effect on NFAT reporter construct. Stably transfected Jurkat cells, right panel, with an NFAT reporter construct, were stimulated with PMA (10 ng/ml)/lonomycin (1 μg/ml), and treated with COMPOUND 1 (0.781-50 μM). 24 hours post treatment lysates were prepared and subjected to dual luciferase assay. All experiments were performed in duplicate and the values plotted as means +/−standard deviation. • D. CBP is the molecular target of COMPOUND 1. Nuclear extracts of SW480 cells were incubated with streptavidin-agarose beads coated with COMPOUND 2 (25 μM). Beads were washed 3 times and the eluted were subjected to gel electrophoresis and immunoblotting, with anti-CBP antibodies. […] The lysates were desalted using G-25 1 cc columns (Pharmacia) to remove the unbound ^14C-labeled-COMPOUND 1, and ^14C-labeled-COMPOUND 1 incorporation was measured. […]
# T1 sequence (Q92793 whole entry): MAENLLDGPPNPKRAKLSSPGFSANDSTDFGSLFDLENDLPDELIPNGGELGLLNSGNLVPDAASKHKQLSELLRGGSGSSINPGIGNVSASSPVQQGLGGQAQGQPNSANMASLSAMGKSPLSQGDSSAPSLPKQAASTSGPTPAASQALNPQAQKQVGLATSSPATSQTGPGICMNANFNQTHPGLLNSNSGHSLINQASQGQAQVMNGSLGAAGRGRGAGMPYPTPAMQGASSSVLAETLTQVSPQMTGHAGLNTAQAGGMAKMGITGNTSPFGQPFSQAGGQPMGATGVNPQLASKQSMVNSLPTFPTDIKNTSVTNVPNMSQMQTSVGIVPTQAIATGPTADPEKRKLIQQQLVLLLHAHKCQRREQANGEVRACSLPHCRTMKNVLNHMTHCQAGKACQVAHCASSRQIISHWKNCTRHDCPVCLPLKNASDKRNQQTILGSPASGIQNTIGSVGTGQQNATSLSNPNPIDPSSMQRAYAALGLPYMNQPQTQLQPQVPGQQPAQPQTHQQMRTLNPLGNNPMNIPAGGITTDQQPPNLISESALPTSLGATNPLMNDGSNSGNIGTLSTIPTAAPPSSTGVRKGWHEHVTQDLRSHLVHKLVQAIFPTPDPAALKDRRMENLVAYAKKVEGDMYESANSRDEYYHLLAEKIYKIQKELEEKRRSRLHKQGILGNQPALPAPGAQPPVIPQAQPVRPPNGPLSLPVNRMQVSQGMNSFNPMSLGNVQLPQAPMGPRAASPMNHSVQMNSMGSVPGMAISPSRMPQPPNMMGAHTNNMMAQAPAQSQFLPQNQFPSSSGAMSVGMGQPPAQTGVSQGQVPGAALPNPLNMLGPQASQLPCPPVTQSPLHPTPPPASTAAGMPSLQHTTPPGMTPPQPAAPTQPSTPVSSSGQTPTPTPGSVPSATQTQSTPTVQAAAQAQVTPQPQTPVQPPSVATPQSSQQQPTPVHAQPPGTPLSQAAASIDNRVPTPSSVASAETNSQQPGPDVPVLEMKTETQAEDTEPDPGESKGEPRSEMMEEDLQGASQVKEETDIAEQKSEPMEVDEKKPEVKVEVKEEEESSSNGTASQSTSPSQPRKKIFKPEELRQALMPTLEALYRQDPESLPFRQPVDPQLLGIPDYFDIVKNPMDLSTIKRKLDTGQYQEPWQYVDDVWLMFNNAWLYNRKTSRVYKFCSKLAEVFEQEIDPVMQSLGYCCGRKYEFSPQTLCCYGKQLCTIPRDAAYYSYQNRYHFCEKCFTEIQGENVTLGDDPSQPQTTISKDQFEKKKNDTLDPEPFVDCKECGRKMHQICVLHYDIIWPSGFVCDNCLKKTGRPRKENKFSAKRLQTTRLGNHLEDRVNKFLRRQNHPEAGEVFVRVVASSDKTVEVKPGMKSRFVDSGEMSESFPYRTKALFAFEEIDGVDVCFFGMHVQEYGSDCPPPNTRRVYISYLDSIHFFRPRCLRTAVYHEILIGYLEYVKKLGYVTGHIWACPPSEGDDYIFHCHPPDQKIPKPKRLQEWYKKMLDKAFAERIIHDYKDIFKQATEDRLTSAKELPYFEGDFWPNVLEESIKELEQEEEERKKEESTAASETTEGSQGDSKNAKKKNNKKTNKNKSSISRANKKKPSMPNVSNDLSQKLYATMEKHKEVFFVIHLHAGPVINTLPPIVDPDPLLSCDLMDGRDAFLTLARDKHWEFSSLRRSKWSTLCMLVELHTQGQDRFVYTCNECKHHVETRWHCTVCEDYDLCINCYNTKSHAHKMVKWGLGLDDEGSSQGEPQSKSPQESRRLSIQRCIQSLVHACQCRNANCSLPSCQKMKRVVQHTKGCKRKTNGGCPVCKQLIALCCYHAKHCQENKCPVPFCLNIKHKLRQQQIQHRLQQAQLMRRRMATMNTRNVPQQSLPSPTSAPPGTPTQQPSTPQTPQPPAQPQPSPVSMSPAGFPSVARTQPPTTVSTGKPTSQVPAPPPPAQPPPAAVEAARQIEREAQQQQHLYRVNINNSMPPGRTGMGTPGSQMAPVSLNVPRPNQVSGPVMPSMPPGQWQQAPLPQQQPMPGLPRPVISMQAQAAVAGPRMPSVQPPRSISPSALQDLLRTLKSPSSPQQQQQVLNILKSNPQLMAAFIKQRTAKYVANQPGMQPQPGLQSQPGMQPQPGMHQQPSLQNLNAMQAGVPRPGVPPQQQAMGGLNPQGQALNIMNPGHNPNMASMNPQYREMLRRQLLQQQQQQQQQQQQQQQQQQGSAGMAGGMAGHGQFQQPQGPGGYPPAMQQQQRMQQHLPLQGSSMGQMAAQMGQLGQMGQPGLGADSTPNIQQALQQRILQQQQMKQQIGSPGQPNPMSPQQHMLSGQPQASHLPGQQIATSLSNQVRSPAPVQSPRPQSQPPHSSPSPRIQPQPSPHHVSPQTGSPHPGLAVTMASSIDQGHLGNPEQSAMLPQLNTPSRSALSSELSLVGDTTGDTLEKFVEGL
smiles,measurement,setting,value
O=C1C(Cc2ccc(O)cc2)N2C(=O)CCN(C(=O)NCc3ccccc3)C2CN1Cc1cccc2ccccc12 (centres unmarked) [COMPOUND 1],Subcellular distribution of β-catenin,[1],caused translocation of β-catenin to the cytoplasm
same,Effect of preincubation with COMPOUND 1 on CBP binding to COMPOUND 2,CBP,blocked the binding of CBP
